Assay results: patent US9617256B2 (priority 2007, dated 2017)
Converted amounts (≈) assume the structure as drawn.

Key:
AECO001 (ATCC25922) = assay: MIC broth microdilution, AECO001; format: cell-based, E. coli; settings: Escherichia coli, ATCC25922, read-out: MIC AECO001
Procedure, shortened: (§1)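 Inocula prepared from 0.5 McFarland suspensions (final 3×10^5–7×10^5 CFU/mL) were added to 2-fold drug dilution series in cation-adjusted Mueller-Hinton broth. Plates stood 18-24 hours at 35° C. under ambient air.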

[1] = tested on: AECO063 (ATCC25922 bearing an acrAB mutation); assay: microbe, parasite or virus in culture; format: cell-based, E. coli; settings: Escherichia coli, ATCC25922, read-out: MIC AECO063
Procedure, shortened: as §1

APAE001 (ATCC27853) = assay: MIC broth microdilution, APAE001; format: cell-based, P. aeruginosa; settings: Pseudomonas aeruginosa, ATCC27853, read-out: MIC APAE001, APAE001 is ATCC27853
Procedure, shortened: as §1

[2] = tested on: APAE006 (strain of P. aeruginosa in which all efflux pumps are inactivated); assay: microbe, parasite or virus in culture; format: cell-based; settings: Pseudomonas aeruginosa, read-out: MIC APAE006, P. aeruginosa, all efflux pumps inactivated
Procedure, shortened: (§2)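 MICs come from broth microdilution in cation-adjusted Mueller-Hinton broth, final inoculum 3×10^5–7×10^5 CFU/mL, 18-24 hours at 35° C. Levofloxacin and QC strains served as assay controls.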

[3] = tested on: APAE006 in the presence of 8 micrograms per milliliter of polymyxin B nonapeptide; format: cell-based, P. aeruginosa; settings: in the presence of 8 micrograms per milliliter of polymyxin B nonapeptide
Procedure, shortened: as §2

[4] = tested on: AABA1060 (clinical isolate of Acinetobacter baumannii); assay: MIC broth microdilution, AABA1060; format: cell-based; settings: Acinetobacter baumannii, read-out: MIC AABA1060
Procedure, shortened: as §1

[5] = tested on: ASAU001 (laboratory strain of S. aureus, ATCC29213); assay: MIC broth microdilution, ASAU001; format: cell-based; settings: Staphylococcus aureus, ATCC29213, read-out: MIC ASAU001
Procedure, shortened: as §1

AECO001 HSA AGP = assay: MIC broth microdilution, AECO001 HSA AGP; format: cell-based, E. coli; settings: Escherichia coli
Procedure, shortened: as §1

Row | Structure (SMILES) | MIC (AECO001 (ATCC25922)) [µg/mL] | MIC [1] [µg/mL] | MIC (APAE001 (ATCC27853)) [µg/mL] | MIC [2] [µg/mL] | MIC APAE006 + PMBN [3] | MIC [4] [µg/mL] | MIC [5] [µg/mL] | MIC (AECO001 HSA AGP) [µg/mL]
1 | C[C@@H](N)[C@H](NC(=O)c1ccc(C#Cc2ccc(CNC(=N)N)cc2)cc1)C(=O)NO [Example 131-3, N-((1S,2R)-2-Amino-1-hydroxycarbamoyl-propyl)-4-(4-guanidinomethyl-phenylethynyl)-benzamide] | 16 to 64 (≈ 39.2 to 157 µM) | 16 to 64 (≈ 39.2 to 157 µM) | 2 to 16 (≈ 4.9 to 39.2 µM) | < 2 | A (MIC's of 2.0 μg/mL or less = A) | 16 to 64 (≈ 39.2 to 157 µM) | 16 to 64 (≈ 39.2 to 157 µM) | 16 to 64 (≈ 39.2 to 157 µM)
2 | C[C@H](NCC(=O)NC[C@H](NC(=O)c1ccc(C#Cc2ccccc2)cc1)C(=O)NO)c1ccccc1 [Example 132-4] | < 2 | < 2 | 2 to 16 (≈ 4.13 to 33 µM) | < 2 | A (MIC's of 2.0 μg/mL or less = A) | 2 to 16 (≈ 4.13 to 33 µM) | 16 to 64 (≈ 33 to 132 µM) | 2 to 16 (≈ 4.13 to 33 µM)
3 | C[C@H](N)[C@H](NC(=O)c1ccc(C#Cc2ccccc2)cc1)C(=O)NO [Example 133-1, N-((1S,2S)-2-Amino-1-hydroxycarbamoyl-propyl)-4-phenylethynyl-benzamide] | < 2 | < 2 | < 2 | < 2 | A (MIC's of 2.0 μg/mL or less = A) | < 2 | 16 to 64 (≈ 47.4 to 190 µM) | 2 to 16 (≈ 5.93 to 47.4 µM)
4 | C[C@H](N)[C@H](NC(=O)c1ccc(C#Cc2ccc(CN3CCOCC3)cc2)cc1)C(=O)NO [Example 133-2] | < 2 | < 2 | < 2 | < 2 | A (MIC's of 2.0 μg/mL or less = A) | 16 to 64 (≈ 36.7 to 147 µM) | > 64 | 16 to 64 (≈ 36.7 to 147 µM)
5 | C[C@H](N)[C@H](NC(=O)c1ccc(C#Cc2ccc(CNC3CC3)cc2)cc1)C(=O)NO [Example 133-3] | < 2 | < 2 | < 2 | < 2 | A (MIC's of 2.0 μg/mL or less = A) | 16 to 64 (≈ 39.4 to 157 µM) | > 64 | 2 to 16 (≈ 4.92 to 39.4 µM)
6 | C[C@H](N)[C@H](NC(=O)c1ccc(C#Cc2ccc(CO)cc2)cc1)C(=O)NO [Example 133-4] | 2 to 16 (≈ 5.44 to 43.5 µM) | < 2 | < 2 | < 2 | A (MIC's of 2.0 μg/mL or less = A) | > 64 | > 64 | 16 to 64 (≈ 43.5 to 174 µM)
7 | C[C@@H](N)[C@H](NC(=O)c1ccc(C#Cc2cncnc2)cc1)C(=O)NO [Example 133-7] | < 2 | < 2 | < 2 | < 2 | A (MIC's of 2.0 μg/mL or less = A) | < 2 | 2 to 16 (≈ 5.89 to 47.1 µM) | 2 to 16 (≈ 5.89 to 47.1 µM)
8 | C[C@@H](N)[C@H](NC(=O)c1ccc(C#Cc2ccncc2)cc1)C(=O)NO [Example 133-8] | 16 to 64 (≈ 47.3 to 189 µM) | 2 to 16 (≈ 5.91 to 47.3 µM) | 2 to 16 (≈ 5.91 to 47.3 µM) | < 2 | A (MIC's of 2.0 μg/mL or less = A) | 16 to 64 (≈ 47.3 to 189 µM) | > 64 | 16 to 64 (≈ 47.3 to 189 µM)
9 | C[C@@H](N)[C@H](NC(=O)c1ccc(C#Cc2cccnc2)cc1)C(=O)NO [Example 133-9] | 16 to 64 (≈ 47.3 to 189 µM) | 2 to 16 (≈ 5.91 to 47.3 µM) | 2 to 16 (≈ 5.91 to 47.3 µM) | < 2 | A (MIC's of 2.0 μg/mL or less = A) | 16 to 64 (≈ 47.3 to 189 µM) | > 64 | 16 to 64 (≈ 47.3 to 189 µM)
10 | C[C@@H](O)[C@H](NC(=O)c1ccc(C#Cc2ccc(C(F)(F)F)nc2)cc1)C(=O)NO [Example 133-10] | 2 to 16 (≈ 4.91 to 39.3 µM) | < 2 | 16 to 64 (≈ 39.3 to 157 µM) | < 2 | A (MIC's of 2.0 μg/mL or less = A) | 16 to 64 (≈ 39.3 to 157 µM) | 16 to 64 (≈ 39.3 to 157 µM) | 2 to 16 (≈ 4.91 to 39.3 µM)
